{"source": "paper PMC7217877", "about": "“N-AS-triggered SPMs are direct regulators of microglia in a model of Alzheimer’s disease” (Nature Communications, 2020)", "key": {"APP/PS1 mice": {"test_system": "APP/PS1 mice", "test": "mRNA levels of inflammatory markers in cortex (real-time PCR, Fig 6j)", "format": "in vivo, mouse", "parameters": "iNOS mRNA level (Figure 6j) / IL1b mRNA level (Figure 6j) / Arg1 mRNA level (Figure 6j) / IL4 mRNA level (Figure 6j) / TGFb mRNA level (Figure 6j) / TNF-a mRNA level (Figure 6j) / IL6 mRNA level (Figure 6j): scale not given here", "description": "Transgenic mouse lines over-expressing the hAPP695swe (APP) and presenilin-1M146V (PS1) mutations were originated from GlaxoSmithKline (Harlow, UK)[32] and maintained as described previously. We purchased 5×FAD mice from Jackson Labs (Stock number. 34840-JAX). Because APP/PS1 and 5xFAD mice show sex differences in disease progression, we used only male mice. To examine possible therapeutic effect of N-AS and aspirin in APP/PS1 mice, the N-AS (30 mg kg^−1, Sigma-Aldrich, 01912) was injected daily s.c. for 8 weeks to 7-months-old APP/PS1 mice until the age of 9 months, and aspirin (2 mg kg^−1, Sigma-Aldrich, A5376)[33] was administrated orally to 7-months-old APP/PS1 mice for 8 weeks. Also, to confirm possible therapeutic efficacy of N-AS in 5×FAD, the N-AS (30 mg kg^−1, Sigma-Aldrich, 01912) was injected daily s.c. for 4 weeks to 3-months-old 5×FAD mice until the age of 4 months. Block randomization method was used to allocate the animals to experimental groups. To eliminate the bias, we were blinded in experimental progress such as data collection and data analysis. Mice were housed at temperature of 22 °C and a 12 h day/12 h night cycle with free access to tap water and food pellets. All protocols were approved by the Kyungpook National University Institutional Animal Care and Use Committee.\nFor total RNA extraction from the microglia derived from WT, APP/PS1, APP/PS1 mice treated with N-AS, and APP/PS1 mice treated with aspirin, the cells were isolated from the cortex of WT, APP/PS1, APP/PS1 mice treated with N-AS, or aspirin using the methods described above. Total RNA was isolated using the kit components according to the manufacturer’s instructions (RNeasy mini kit, 74134, QIAGEN). cDNA was synthesized from 5 μg of total RNA using a commercially available kit (Takara). Quantitative real-time PCR was performed using a Corbett research RG-6000 real-time PCR instrument. Primers are described in Supplementary Table 5."}, "COX2 WT": {"target": "T1, COX2 WT (Homo sapiens, UniProt P35354)", "T1 construct": "His (N); made in house", "T1 sequence (P35354 18-604)": "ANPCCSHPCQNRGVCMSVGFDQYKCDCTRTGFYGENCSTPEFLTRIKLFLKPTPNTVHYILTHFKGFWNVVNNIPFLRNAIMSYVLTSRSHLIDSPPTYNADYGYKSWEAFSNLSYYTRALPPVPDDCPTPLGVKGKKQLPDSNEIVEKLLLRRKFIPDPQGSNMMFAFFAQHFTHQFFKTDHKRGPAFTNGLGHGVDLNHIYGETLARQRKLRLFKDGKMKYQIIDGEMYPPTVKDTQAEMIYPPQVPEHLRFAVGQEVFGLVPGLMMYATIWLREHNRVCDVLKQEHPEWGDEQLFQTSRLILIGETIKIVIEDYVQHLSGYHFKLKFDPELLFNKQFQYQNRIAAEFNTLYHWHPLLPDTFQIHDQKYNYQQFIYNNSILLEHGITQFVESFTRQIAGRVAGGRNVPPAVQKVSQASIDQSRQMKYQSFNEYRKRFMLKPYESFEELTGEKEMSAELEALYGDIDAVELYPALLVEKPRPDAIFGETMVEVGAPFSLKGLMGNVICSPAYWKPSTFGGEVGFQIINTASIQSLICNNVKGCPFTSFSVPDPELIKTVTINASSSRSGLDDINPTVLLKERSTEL", "test": "filter binding assay of [14C] N-AS to COX2", "settings": "COX2 Control; 0.2 uM (20 pmol); replicates"}, "[1]": {"test_system": "immortalized human microglia", "test": "live-cell phagocytosis assay (bead uptake, Supplementary Fig 6e,f)", "format": "cell-based", "description": "Live-cell phagocytosis assays were performed according to previously described procedures with minor modifications. Briefly, in a glass bottom cell culture dish (SPL, 101350), adult SV40 immortalized human microglia cells (Applied Biologics Materials, T0251) were seeded for phagocytosis assay. […] After incubation, the microglia were treated with 0 or 2.5 μM N-AS (Sigma-Aldrich, 01912) at 37 °C for 2 h. FITC beads (Invitrogen) preopsonized in FBS (Gibco) were added at a concentration at 0.01% and then immediately observed using a laser scanning confocal microscope equipped with a live cell chamber system (FV3000, Olympus) for 2 h. Confocal images were collected every 5 min for 2 h and analyzed using the ImageJ software (National Institutes of Health)."}, "microsomal stability": {"test": "microsomal stability", "format": "in vitro ADME", "settings": "for half-life at 1 µM: pH 7.4", "description": "An N-AS stock solution (10 mM dissolved in methanol) was diluted with methanol to make a concentration of 100 μM. A 10 μl aliquot of this solution was then diluted using 90 μl of 100 mM potassium phosphate buffer (pH 7.4). 10 μl of this N-AS solution was incubated at 37 °C with human or mouse liver microsomes (80 μl of 0.625 mg protein ml^−1 phosphate buffer) for 10 min before adding of 10 μl of an NADPH regenerating system to start the reaction. Reactions were stopped at 0, 15, 30, 60, and 90 min time-points by the addition of 200 μl cold acetonitrile (containing propranolol as internal standard at 20 ng ml^−1) and centrifuged at 17,968×g for 10 min. A 2 μl aliquot of the supernatant was injected into the LC-MS/MS system. The ratio of peak area of test compound/internal standard was used to determine the % remaining of N-AS over time."}, "[2]": {"settings": "APP/PS1 + N-AS, individual animals"}}, "note": "“And” between values parts separate entries of the source, which are not always exact repeats. Identical values can stand only once.", "data": [{"smiles": "CCCCCCCCCCCCC/C=C/[C@@H](O)[C@H](CO)NC(C)=O", "note": "[N-AS, N-((2S,3R,E)-1,3-Dihydroxyoctadec-4-en-2-yl)acetamide]", "values": [{"measurement": "Arg1 mRNA level (Figure 6j)", "setting": "APP/PS1 mice; [2]", "value": "1.307 and 2.185 and 1.935 and 1.275 and 1.335 and 1.465"}, {"measurement": "IL1b mRNA level (Figure 6j)", "setting": "APP/PS1 mice; [2]", "value": "1.25 and 0.7 and 1.3 and 0.95 and 0.88 and 1.1"}, {"measurement": "IL4 mRNA level (Figure 6j)", "setting": "APP/PS1 mice; [2]", "value": "0.765 and 1.235 and 0.984 and 0.825"}, {"measurement": "IL6 mRNA level (Figure 6j)", "setting": "APP/PS1 mice; [2]", "value": "0.7652 and 0.81 and 0.821 and 0.83 and 0.957"}, {"measurement": "TGFb mRNA level (Figure 6j)", "setting": "APP/PS1 mice; [2]", "value": "1.79 and 2.4 and 2.595 and 2.81"}, {"measurement": "TNF-a mRNA level (Figure 6j)", "setting": "APP/PS1 mice; [2]", "value": "0.865 and 1.34 and 1.37 and 1.005 and 1.085"}, {"measurement": "iNOS mRNA level (Figure 6j)", "setting": "APP/PS1 mice; [2]", "value": "0.92 and 1.42 and 1.85 and 1.2 and 0.78 and 0.55"}, {"measurement": "inflammatory response (mRNA of inflammatory markers)", "setting": "APP/PS1 mice; N-AS vs vehicle APP/PS1", "value": "improved"}, {"measurement": "binding velocity (Vbinding)", "setting": "COX2 WT", "value": "0.350 nM/min and 0.395 nM/min and 0.289 nM/min"}, {"measurement": "phagocytosis capacity, in words", "setting": "[1]; Aβ-treated human microglia + N-AS", "value": "improved SPM production and phagocytosis capacity"}, {"measurement": "Final number of beads per cell (at 120 min)", "setting": "[1]; human microglia, Ab 0mM, sFig 6f", "value": "20 and 14 and 16 and 11 and 13 and 15"}, {"measurement": "% of remaining after 0.5 h", "setting": "microsomal stability; Mouse liver microsomes", "value": 60.7, "unit": "%"}, {"measurement": "half-life at 1 µM", "setting": "microsomal stability; Human liver microsomes", "value": 36, "unit": "min"}, {"measurement": "half-life at 1 µM", "setting": "microsomal stability; Mouse liver microsomes", "value": 54, "unit": "min"}]}]}
